Inconclusive results and toxic doses are left out. Rule as the data show it: active = T/C of 150% or more; inactive = T/C below 125%.
Test system: L1210 leukemia ip in BDF1 mice, survival T/C
Experiment: NCI In Vivo Anticancer Drug Screen. Data for tumor model L1210 Leukemia (intraperitoneal) in B6D2F1 (BDF1) mice
Conditions: endpoint: mean survival time, higher = longer survival
How it was run: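 Each compound was tested against a transplantable tumor grown in mice. The endpoint was survival, with treated animals benchmarked against vehicle controls as a simple ratio.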

[1] = dose: 100.0 mg/kg/injection, schedule: Q04DX003 (ip), vehicle: saline
[2] = dose: 200.0 mg/kg/injection, schedule: Q04DX003 (ip), vehicle: saline
[3] = dose: 400.0 mg/kg/injection, schedule: Q04DX003 (ip), vehicle: saline
[4] = dose: 100.0 mg/kg/injection, schedule: Q01DX009 (ip), vehicle: saline
[5] = dose: 100.0 mg/kg/injection, schedule: Q04DX003 (ip), vehicle: saline with Tween-80
[6] = dose: 200.0 mg/kg/injection, schedule: Q04DX003 (ip), vehicle: saline with Tween-80
[7] = dose: 400.0 mg/kg/injection, schedule: Q04DX003 (ip), vehicle: saline with Tween-80

Measured: T/C

O=C(OCc1ccccc1CN1CCCC1)c1ccc([N+](=O)[O-])cc1Cl
inactive: dose: 100.0 mg/kg/injection, schedule: Q04DX002 (ip), vehicle: saline 107 % of control | dose: 200.0 mg/kg/injection, schedule: Q04DX002 (ip), vehicle: saline 96 % of control

CCCc1nc2ccccc2c(=O)n1/N=C/c1ccc(Cl)cc1Cl
inactive: dose: 100.0 mg/kg/injection, schedule: Q04DX002 (ip), vehicle: Klucel (hydroxypropylcellulose) (HPC) 96 % of control | dose: 200.0 mg/kg/injection, schedule: Q04DX002 (ip), vehicle: Klucel (hydroxypropylcellulose) (HPC) 92 % of control | dose: 400.0 mg/kg/injection, schedule: Q04DX002 (ip), vehicle: Klucel (hydroxypropylcellulose) (HPC) 103 % of control

COc1cc(NC(=O)Oc2ccc([N+](=O)[O-])cc2)ccc1S(=O)(=O)F
inactive: dose: 100.0 mg/kg/injection, schedule: Q01DX009 (ip), vehicle: saline with Tween-80 94 % of control | dose: 200.0 mg/kg/injection, schedule: Q01DX009 (ip), vehicle: saline with Tween-80 103 % of control | dose: 400.0 mg/kg/injection, schedule: Q01DX009 (ip), vehicle: saline with Tween-80 103 % of control

O=c1ccn(CCC(CO)CO)c(=O)[nH]1
inactive: [1] 101 % of control | [2] 106 % of control | [3] 102 % of control

Cc1ccc(C)c(N2CCN(c3ccncc3N)CC2)c1
inactive: dose: 75.0 mg/kg/injection, schedule: Q01DX001 (ip), vehicle: saline with Tween-80 98 % of control | dose: 75.0 mg/kg/injection, schedule: Q01DX009 (ip), vehicle: saline with Tween-80 95 % of control | dose: 150.0 mg/kg/injection, schedule: Q01DX001 (ip), vehicle: saline with Tween-80 93 % of control | dose: 150.0 mg/kg/injection, schedule: Q01DX009 (ip), vehicle: saline with Tween-80 102 % of control | dose: 300.0 mg/kg/injection, schedule: Q01DX001 (ip), vehicle: saline with Tween-80 101 % of control

CCC(C)c1cccc(OP(=O)(CC(C)CC(C)(C)C)Oc2ccccc2C(C)CC)c1 (stereo unspecified)
inactive: dose: 50.0 mg/kg/injection, schedule: Q01DX001 (ip), vehicle: acetone 94 % of control | dose: 100.0 mg/kg/injection, schedule: Q01DX001 (ip), vehicle: acetone 94 % of control | dose: 200.0 mg/kg/injection, schedule: Q01DX001 (ip), vehicle: acetone 93 % of control

O=Cc1c[nH]c2nccnc12
inactive: [4] 94 % of control | [1] 96 % of control | dose: 200.0 mg/kg/injection, schedule: Q01DX009 (ip), vehicle: saline 97 % of control | [2] 93 % of control | dose: 400.0 mg/kg/injection, schedule: Q01DX009 (ip), vehicle: saline 100 % of control | [3] 93 % of control

COC1OC(COCc2ccccc2)C(OCc2ccccc2)C(OC)C1O (stereo unspecified)
inactive: [5] 96 % of control | [6] 94 % of control | [7] 104 % of control

CCOc1ccc(NC2CNC(=O)NC2=O)cc1 (stereo unspecified)
inactive: dose: 200.0 mg/kg/injection, schedule: Q01DX Z (ip), vehicle: methylcellulose (MC) 91 % of control

Cn1c(=O)c(CC(C(=O)O)C(=O)O)nc2ccccc21
inactive: dose: 50.0 mg/kg/injection, schedule: Q01DX009 (ip), vehicle: Klucel (hydroxypropylcellulose) (HPC) 93 % of control | dose: 100.0 mg/kg/injection, schedule: Q01DX009 (ip), vehicle: Klucel (hydroxypropylcellulose) (HPC) 93 % of control | dose: 200.0 mg/kg/injection, schedule: Q01DX009 (ip), vehicle: Klucel (hydroxypropylcellulose) (HPC) 100 % of control

CCCCCCCCCCN(CCCCCCCCCC)S(=O)(=O)c1ccc(OC)c([N+](=O)[O-])c1
inactive: dose: 75.0 mg/kg/injection, schedule: Q01DX001 (ip), vehicle: other 100 % of control | dose: 150.0 mg/kg/injection, schedule: Q01DX001 (ip), vehicle: other 93 % of control | dose: 300.0 mg/kg/injection, schedule: Q01DX001 (ip), vehicle: other 90 % of control

C=CCC1(CCC)C(=O)NC(=O)NC1=O
inactive: dose: 25.0 mg/kg/injection, schedule: Q01DX009 (ip), vehicle: saline 100 % of control | dose: 50.0 mg/kg/injection, schedule: Q01DX009 (ip), vehicle: saline 112 % of control | [4] 100 % of control | dose: 100.0 mg/kg/injection, schedule: Q04DX003 (ip), vehicle: Klucel (hydroxypropylcellulose) (HPC) 92 % of control

O=C(Cc1ccccc1)c1ccc(OCC2CO2)cc1 (stereo unspecified)
inactive: [5] 96 % of control | [6] 94 % of control | [7] 94 % of control

NC(=O)C1(Nc2ccc(-c3ccccc3)cc2)CCCC1
inactive: dose: 50.0 mg/kg/injection, schedule: Q01DX001 (ip), vehicle: carboxymethylcellulose (CMC) 96 % of control | dose: 100.0 mg/kg/injection, schedule: Q01DX001 (ip), vehicle: carboxymethylcellulose (CMC) 96 % of control | dose: 200.0 mg/kg/injection, schedule: Q01DX001 (ip), vehicle: carboxymethylcellulose (CMC) 88 % of control | dose: 400.0 mg/kg/injection, schedule: Q01DX001 (ip), vehicle: carboxymethylcellulose (CMC) 90 % of control

Reference: PubChem BioAssay AID248 (DTP/NCI, 2004)
